In patent US20210315992A1, “ADJUVANT EFFECT OF THE TLR1/2 AGONIST DIPROVOCIM SYNERGIZES WITH CHECKPOINT-INHIBITING ANTIBODIES TO ELIMINATE DISEASE” (The Board of Regents of the University of Texas System, priority 2018, published 2021):
Entries after “also recorded” stand apart in the source; their conditions may differ.

Key:
human PBMC = assay: TNF production by human PBMC (ELISA); assay type: cell-based; settings: 24 hours
Procedure: (§1) For murine BMDCs, bone morrow cells were cultured in Petri dishes in 10 ml DMEM cell culture medium containing 10 ng/ml of murine GM-CSF (R&D Systems). On day 3 of culture, this was replaced with fresh GM-CSF medium. Loosely adherent cells were transferred to a fresh Petri dish and cultured for an additional 4 d. Human PBMC were purchased from Stemcell Technologies. THP-1 (ATCC) cells were differentiated by treatment with 100 nM PMA (Sigma) in RPMI cell culture medium [RPMI containing 10% vol/vol FBS (Gemini Bio Products), 1% penicillin and streptomycin (Life Technologies)] for 24 hours. After that, cells were washed with PBS and cultured in fresh RPMI cell culture medium for 24 hours before use in studies.
[…] Mouse TNF, IL-6, or IFN-β, or human TNF in the supernatants were measured by ELISA kits according to the manufacturer's instructions (eBioscience and PBL Assay Science). Pretreatment with 20 μg/ml anti-TLR1, anti-TLR2 or isotype control antibody (eBioscience) was for 1 hour. Unless otherwise indicated, mouse cells were from wild type C57BL/6J mice.

[1] = system: mouse peritoneal macrophages; assay: TNF production by mouse peritoneal macrophages (ELISA); assay type: cell-based; settings: Peritoneal macrophage, 4 hours, read-out: EC50, dose-dependent TNF production
Procedure: (§2) Thioglycollate-elicited macrophages were recovered 4 days after i.p. injection of 2 ml BBL thioglycollate medium, brewer modified (4% wt/vol; BD Biosciences) by peritoneal lavage with 5 ml phosphate buffered saline (PBS). The peritoneal macrophages were cultured in DMEM cell culture medium [DMEM containing 10% vol/vol FBS (Gemini Bio Products), 1% vol/vol penicillin and streptomycin (Life Technologies)] at 37° C. and 95% air/5% CO2.
(§3) Cells were seeded onto 96-well plates at 1×10^5 cells per well and stimulated with a Diprovocim (dissolved in DMSO, and final DMSO concentrations (0.2%) were kept constant in all experiments) for 4 h. Mouse TNF, IL-6, or IFN-β, or human TNF in the supernatants were measured by ELISA kits according to the manufacturer's instructions (eBioscience and PBL Assay Science). Pretreatment with 20 μg/ml anti-TLR1, anti-TLR2 or isotype control antibody (eBioscience) was for 1 hour. Unless otherwise indicated, mouse cells were from wild type C57BL/6J mice.

mouse BMDC = assay: IL-6 production by mouse BMDC (ELISA); assay type: cell-based; settings: 4 hours
Procedure: as §1, §3

[2] = system: mouse peritoneal macrophages; assay: IFN-β secretion by mouse peritoneal macrophages (ELISA); assay type: cell-based; settings: 4 hours
Procedure: as §2, §3

C57BL/6J mice = assay: Immunization with OVA and measurement of antibody response; assay type: in vivo, mouse
Procedure: EndoFit ovalbumin (OVA) with 98% purity minimum (SDS-PAGE) and endotoxin levels <1 EU/mg was purchased from Invivogen. Mice (4 mice per group) were immunized i.m. with 100 μg OVA mixed with vehicle (DMSO:Tween 80:saline=1:1:8), with 10 mg/kg Diprovocim, or with 2 mg/kg Alum (Alhydrogel adjuvant 2%, Invivogen). After 14 days, serum titers of OVA-specific IgG, IgG1, or IgG2b (SouthernBiotech) were measured by ELISA.

B16-OVA melanoma = assay: B16-OVA melanoma, pre-tumor treatment (immunization on day of tumor inoculation); assay type: in vivo, mouse
Procedure: FIG. 4A through FIG. 4J illustrate inhibition of B16-OVA tumor growth by pre- or post-tumor treatment with Diprovocim-adjuvanted tumor vaccination and checkpoint blockade. FIG. 4A provides a schematic of pre- and post-tumor treatment protocols. C57BL/6J mice (n=8 mice per treatment) were injected s.c. with 2×10^5 B16-OVA melanoma cells on day 0. For pre-tumor treatment, mice were immunized i.m. with OVA (100 μg) mixed with vehicle or Diprovocim (10 mg/kg) or alum (2 mg/kg) on the same day prior to tumor injection. Mice received a booster immunization seven days later in which anti-PD-L1 (200 μg) was administered on days 3, 6 and 9 after tumor inoculation by i.p. injection. For post-tumor treatment, initial immunization was on day 3 after tumor inoculation, with a booster seven days later. Anti-PD-L1 (200 μg) was administered on days 3, 6, 9, 12, and 15 after tumor inoculation by i.p. injection. FIG. 4B through FIG. 4F illustrate pre-tumor treatment results. Tumor volume (FIG. 4B and FIG. 4D) and percent mouse survival (survivors/total mice) (FIG. 4C and FIG. 4E). […] FIG. 4G through FIG. 4J illustrate a comparison of pre-tumor (FIG. 4G and FIG. 4H) vs. post-tumor treatment (FIG. 4I and FIG. 4J). Tumor volume (FIG. 4G and FIG. 4I) and percent mouse survival (survivors/total mice) (FIG. 4H and FIG. 4J) are shown. P values for tumor volume analysis apply to the final time point as indicated in graphs and were calculated by Student's t test. P values for survival analysis were calculated by Kaplan-Meier analysis. All results are representative of two independent studies.
C57BL/6J mice (n=8) were injected s.c. with 2×10^5 B16-OVA melanoma cells on day 0. Anti-PD-L1 (200 μg) or mouse IgG2a isotype control antibody was administered on days 3, 6 and 9 after tumor inoculation by i.p. injection. FIG. 8A is a graph of tumor volume versus time and FIG. 8B is a graph showing percent mouse survival (survivors/total mice) versus time. The control values in both plots are shown above those for the anti-PD-L1 values where the two values diverge. […] Results are representative of two independent studies.
B16-OVA cells (B16F10 melanoma cells stably expressing chicken ovalbumin) were grown in DMEM containing 10% vol/vol FBS. A total of 2×10^5 B16-OVA cells in 100 μL PBS were injected s.c. into the right flank of 8-12 week old male C57BL/6J mice to establish tumors (n=8 mice per group). For pretreatment, 10 mg/kg Diprovocim-1 or 2 mg/kg alum with or without OVA (100 μg) was injected i.m. into mice on the same day as tumor inoculation (day 0). Mice received a booster shot seven days after the first immunization. On day 3, 6 and 9, some groups were injected i.p. with 200 μg checkpoint inhibitor (anti-mPD-L1, BioXcell) in 100 μl saline.
Tumors were measured with a digital caliper (Fisher) and the tumor sizes were calculated using the following formula: volume=0.5×length×width^2. Mice were sacrificed when the tumor length or width reached 2 cm.

**Q.** How did the “activation of TNF production compared with Pam3CSK4” value (human PBMC) turn out when `O=C(N[C@H]1C[C@@H]1c1ccccc1)[C@@H]1CN(C(=O)c2ccc(C(=O)N3C[C@@H](C(=O)N[C@H]4C[C@@H]4c4ccccc4)[C@H](C(=O)N[C@H]4C[C@@H]4c4ccccc4)C3)cc2)C[C@H]1C(=O)N[C@H]1C[C@@H]1c1ccccc1` [Diprovocim-1, (3S,3'S,4S,4'S)-1,1′-Terephthaloylbis(N^3,N^4-bis((1S,2R)-2-phenylcyclo-propyl)pyrrolidine-3,4-dicarboxamide)] was run?
**A.** more potent and efficacious; also recorded: more potent than Pam3CSK4

**Q.** And the EC50 (human PBMC; read-out: EC50, dose-dependent TNF production)?
**A.** 0.875 nM

**Q.** What about the EC50 [1] of the same compound?
**A.** 1.3 nM

**Q.** What about the IL-6 production (mouse BMDC) of the same compound?
**A.** induced IL-6 production

**Q.** And the “type I IFN (IFN-β) production” value [2]?
**A.** failed to stimulate type I IFN production

**Q.** What about the “type I IFN (IFN-β) production” value ([2]; listed as Diprovocim) of the same compound?
**A.** does not stimulate IFN-β secretion

**Q.** What about the “adjuvant activity in antigen-specific antibody production in TLR2-deficient mice” value (C57BL/6J mice; Tlr2−/− mice) of the same compound?
**A.** abrogated

**Q.** What about the “serum OVA-specific IgG compared to OVA plus vehicle” value (C57BL/6J mice; wild type mice, i.m. with 100 μg OVA, Diprovocim 10 mg/kg or alum 2 mg/kg, day 14) of the same compound?
**A.** highly elevated

**Q.** And the “tumor growth or mouse survival” value (B16-OVA melanoma; Diprovocim alone (no OVA) combined with anti-PD-L1 treatment)?
**A.** no effect

**Q.** And the “effect on tumor growth, survival rate, and survival time compared with alum” value (B16-OVA melanoma; pre-tumor treatment)?
**A.** superior to that of alum

**Q.** What about the “tumor growth rates and survival times compared with vehicle alone” value (B16-OVA melanoma; single agent, no anti-PD-L1, i.m. day 0 and booster day 7) of the same compound?
**A.** similar
